Test results published in US11084824B2, “Pyrazolopyrimidine derivatives, preparation method thereof, and pharmaceutical composition for use in preventing or treating cancer, autoimmune disease and brain disease containing the same as an active ingredient” (Korea Research Institute of Chemical Technology, priority 2017, dated 2021).

Columns and labels:
TMD8 cells = test: TMD8 cell growth inhibition (WST-1, 72 hours); format: cell-based; conditions: Homo sapiens, TMD8 ABC type DLBCL cell line, WST-1, absorbance 450 nm
Description: TDM-8 cells, the ABC (activated B-cell) type DLBCL (diffuse large B cell lymphoma) cell line sensitive to BTK signaling, were seeded in a 96-well plate at 30% confluency. Then, the compounds of the invention were treated thereto at different concentrations. 72 hours later, WST-1 reagent was added thereto. One hour later, absorbance was measured at 450 nm by using a spectramax spectrophotometer.

[1] = target: Bruton's tyrosine kinase (BTK) (Homo sapiens (Human), UniProt Q06187); test: BTK enzyme inhibition assay (Cisbio HTRF kit); format: biochemical; conditions: 30 minutes reaction, fluorescence 665 nm/620 nm
Bruton's tyrosine kinase (BTK), sequence (Q06187 whole entry): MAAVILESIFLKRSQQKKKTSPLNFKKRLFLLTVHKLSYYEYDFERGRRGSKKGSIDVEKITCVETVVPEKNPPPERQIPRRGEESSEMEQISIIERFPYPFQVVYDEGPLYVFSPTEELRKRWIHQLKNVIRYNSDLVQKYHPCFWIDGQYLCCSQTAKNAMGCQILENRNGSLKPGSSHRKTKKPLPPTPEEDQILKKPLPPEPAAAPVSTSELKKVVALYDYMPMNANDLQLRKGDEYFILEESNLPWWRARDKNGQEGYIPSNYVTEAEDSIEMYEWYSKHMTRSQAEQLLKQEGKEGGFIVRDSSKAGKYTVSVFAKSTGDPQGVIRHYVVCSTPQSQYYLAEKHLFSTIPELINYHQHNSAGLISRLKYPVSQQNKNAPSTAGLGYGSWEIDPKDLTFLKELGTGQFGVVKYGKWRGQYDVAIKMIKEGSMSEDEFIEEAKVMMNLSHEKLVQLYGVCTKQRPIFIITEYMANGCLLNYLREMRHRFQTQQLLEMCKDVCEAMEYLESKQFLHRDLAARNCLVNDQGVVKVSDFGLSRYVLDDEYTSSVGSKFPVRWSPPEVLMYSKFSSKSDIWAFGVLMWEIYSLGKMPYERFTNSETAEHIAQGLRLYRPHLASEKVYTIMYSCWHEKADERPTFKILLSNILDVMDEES
Description: BTK enzyme evaluation with each compound of examples of the invention was performed by using BTK enzyme inhibition diagnosis kit (Cisbio, Codolet, France). […] Then, EDTA (ethylenediaminetetraacetic acid) was added thereto in order to terminate the reaction. At this time, the EDTA solution contained curopium-containing antibody (antiphosphoresidue antibody) and straptavidin-XL665 (SA-XL665, Cisbio). After incubation for 1 hour, fluorescence was measured. The emission values of 665 nm and 620 nm excited at 337 nm were measured with Envision reader. IC50 values were determined using GraphPad prism (version 5). Herein, the curve indicates a nonlinear regression model, which was determined by logarithmic functions and reaction values.

| IC50 [1] [nM] | SMILES | IC50 (TMD8 cells) [nM] |
| --- | --- | --- |
|  | Cc1cccc(C)c1Nc1nn(C)c2nc(Nc3ccc4c(c3)C(=O)NCC4)ncc12 [Example 77, 7-((3-((2,6-dimethylphenyl)amino)-1-methyl-1H-pyrazolo[3,4-d]pyrimidine-6-yl)amino)-3,4-dihydroisoquinoline-1(2H)-one] | 146 |
| 0.5 | Cc1cccc(C)c1Nc1nn(C)c2nc(Nc3ccc4c(c3)C(C)NCC4)ncc12 (centres unmarked) [Example 20, N^3-(2,6-dimethylphenyl)-1-methyl-N^6-(1-methyl-1,2,3,4-tetrahydroisoquinoline-7-yl)-1H-pyrazolo[3,4-d]pyrimidine-3,6-diamine] | 8.28 |
| 0.847 | Cc1cccc(C)c1Nc1nn(C)c2nc(Nc3ccc4c(c3)C(C)NC(C)(C)C4)ncc12 (centres unmarked) [Example 55, N3-(2,6-dimethylphenyl)-1-methyl-N 6-(1,3,3-trimethyl-1,2,3,4-tetrahydroisoquinoline-7-yl)-1H-pyrazolo[3,4-d]pyrimidine-3,6-diamine] | 16.8 |
| 1.21 | Cc1cccc(C)c1Nc1nn(C)c2nc(Nc3ccc4c(c3)C(C)N(C)CC4)ncc12 (centres unmarked) [Example 62, N6-(1,2-dimethyl-1,2,3,4-tetrahydroisoquinoline-7-yl)-N 3-(2,6-dimethylphenyl)-1-methyl-1H-pyrazolo[3,4-d]pyrimidine-3,6-diamine] | 27.9 |
| 15 | Cc1cc(C(=O)Nc2ccccn2)cc(C)c1Nc1nn(C)c2nc(Nc3ccc4c(c3)CNCC4)ncc12 [Example 34, 3,5-dimethyl-4-(1-methyl-6-(1,2,3,4-tetrahydroisoquinoline-7-ylamino)-1H-pyrazolo[3,4-d]pyrimidine-3-ylamino)-N-(pyridine-2-yl)benzamide] | 178 |
|  | Cc1cccc(C)c1Nc1n[nH]c2nc(Nc3ccc4c(c3)CNCC4)ncc12 [Example 19, N3-(2,6-dimethylphenyl)-N6-(1,2,3,4-tetrahydroisoquinoline-7-yl)-1H-pyrazolo[3,4-d]pyrimidine-3,6-diamine] | 49.4 |
|  | Cn1nc(Nc2c(F)cccc2F)c2cnc(Nc3ccc4c(c3)CNCC4)nc21 [Example 42, N^3-(2,6-difluorophenyl)-1-methyl-N^6-(1,2,3,4-tetrahydroisoquinoline-7-yl)-1H-pyrazolo[3,4-d]pyrimidine-3,6-diamine] | 397 |
|  | Cc1cccc(C)c1Nc1nn(C)c2nc(Nc3ccc4c(c3)CCCC4)ncc12 [Example 75, N3-(2,6-dimethylphenyl)-1-methyl-N 6-(5,6,7,8-tetrahydronaphthalen-2-yl)-1H-pyrazolo[3,4-d]pyrimidine-3,6-diamine] | 667 |
| 1.7 | Cc1cc(F)cc(C)c1Nc1nn(C)c2nc(Nc3ccc4c(c3)CNCC4)ncc12 [Example 44, N^3-(4-fluoro-2,6-dimethylphenyl)-1-methyl-N^6-(1,2,3,4-tetrahydroisoquinoline-7-yl)-1H-pyrazolo[3,4-d]pyrimidine-3,6-diamine] | 69 |
| 2.8 | Cc1ccc(Nc2nn(C)c3nc(Nc4ccc5c(c4)CNCC5)ncc23)c(C)c1 [Example 39, N^3-(2,4-dimethylphenyl)-1-methyl-N^6 (1,2,3,4-tetrahydroisoquinoline-7-yl)-1H-pyrazolo[3,4-d]pyrimidine-3,6-diamine] | 292 |
|  | Cc1ccc(C(=O)Nc2cccc(C(F)(F)F)c2)cc1Nc1nn(C)c2nc(Nc3ccc4c(c3)CNCC4)ncc12 [Example 52, 4-methyl-3-(1-methyl-6-(1,2,3,4-tetrahydroisoquinoline-7-ylamino)-1H-pyrazolo[3,4-d]pyrimidine-3-ylamino)-N-(3-(trifluoromethyl)phenyl)benzamide] | 83.2 |
|  | Cc1ccc(C)c(Nc2nn(C)c3nc(Nc4ccc5c(c4)CNCC5)ncc23)c1 [Example 45, N^3-(2,5-dimethylphenyl)-1-methyl-N^6 (1,2,3,4-tetrahydroisoquinoline-7-yl)-1H-pyrazolo[3,4-d]pyrimidine-3,6-diamine] | 720 |
| 386 | Cn1nc(Nc2c(Cl)cccc2Cl)c2cnc(Nc3ccc4c(c3)CN(C(=O)C(F)(F)F)CC4)nc21 [Example 11, 1-(7-(3-(2,6-dichlorophenylamino)-1-methyl-1H-pyrazolo[3,4-d]pyrimidine-6-ylamino)-3,4-dihydroisoquinoline-2(1H)-yl)-2,2,2-trifluoroethaneone] | 243 |
| 10 | Cc1cccc(C)c1Nc1nn(C)c2nc(Nc3ccc(C4CCNCC4)cc3)ncc12 [Comparative Example 1, N^3-(2,6-dimethylphenyl)-1-methyl-N^6-(4-(piperidine-4-yl)phenyl)-1H-pyrazolo[3,4-d]pyrimidine-3,6-diamine, reference compound] |  |
|  | Cc1cccc(C)c1Nc1nn(C)c2nc(Nc3ccc4c(c3)CN(C)C4)ncc12 [Example 74, N3-(2,6-dimethylphenyl)-1-methyl-N 6-(2-methylisoindolin-5-yl)-1H-pyrazolo[3,4-d]pyrimidine-3,6-diamine] | 358 |
|  | Cc1cc(C)c(Cl)c(Nc2nn(C)c3nc(Nc4ccc5c(c4)CNCC5)ncc23)c1 [Example 38, N^3-(2-chloro-3,5-dimethylphenyl)-1-methyl-N^6-(1,2,3,4-tetrahydroisoquinoline-7-yl)-1H-pyrazolo[3,4-d]pyrimidine-3,6-diamine] | 832 |
|  | CC(=O)N1Cc2cc(Nc3ncc4c(Nc5c(C)cccc5C)nn(C)c4n3)ccc2CC1(C)C [Example 71, 1-(7-((3-((2,6-dimethylphenyl)amino)-1-methyl-1H-pyrazolo[3,4-d]pyrimidine-6-yl)amino)-3,3-dimethyl-3,4-dihydroisoquinoline-2(1H)-yl)ethane-1-one] | 114 |
|  | C=CC(=O)Nc1ccc(Nc2ncc3c(Nc4c(C)cccc4C)nn(C)c3n2)cc1 [Example 76, N-(4-((3-((2,6-dimethylphenyl)amino)-1-methyl-1H-pyrazolo[3,4-d]pyrimidine-6-yl)amino)phenyl)acrylamide] | 75.2 |
|  | Cc1cccc(C)c1Nc1nn(C)c2nc(Nc3ccc4c(c3)CN(C)C(C)(C)C4)ncc12 [Example 66, N3-(2,6-dimethylphenyl)-1-methyl-N 6-(2,3,3-trimethyl-1,2,3,4-tetrahydroisoquinoline-7-yl)-1H-pyrazolo[3,4-d]pyrimidine-3,6-diamine] | 28.5 |
|  | CC(=O)N1Cc2ccc(Nc3ncc4c(Nc5c(C)cccc5C)nn(C)c4n3)cc2C1 [Example 72, 1-(5-((3-((2,6-dimethylphenyl)amino)-1-methyl-1H-pyrazolo[3,4-d]pyrimidine-6-yl)amino)isoindolin-2-yl)ethane-1-one] | 266 |
| 20 | CC(=O)N1CCC(c2ccc(Nc3ncc4c(Nc5c(C)cccc5C)nn(C)c4n3)cc2)CC1 [Comparative Example 2, 1-(4-(4-(3-(2,6-dimethylphenylamino)-1-methyl-1H-pyrazolo[3,4-d]pyrimidine-6-ylamino)phenyl)piperidine-1-yl)ethaneone, reference compound] |  |
|  | COCCOc1cc(C)c(Nc2nn(C)c3nc(Nc4ccc5c(c4)C(C(C)C)NCC5)ncc23)c(C)c1 (centres unmarked) [Example 78, N6-(1-isopropyl-1,2,3,4-tetrahydroisoquinoline-7-yl)-N 3-(4-(2-methoxyethoxy)-2,6-dimethylphenyl)-1-methyl-1H-pyrazolo[3,4-d]pyrimidine-3,6-diamine] | 26.2 |
|  | CC(=O)N1CCc2ccc(Nc3ncc4c(Nc5c(C)cccc5C)nn(C)c4n3)cc2C1C(C)C (centres unmarked) [Example 70, 1-(7-((3-((2,6-dimethylphenyl)amino)-1-methyl-1H-pyrazolo[3,4-d]pyrimidine-6-yl)amino)-1-isopropyl-3,4-dihydroisoquinoline-2(1H)-yl) ethane-1-one] | 24.5 |
|  | COCCOc1cc(C)c(Nc2nn(C)c3nc(Nc4ccc5c(c4)C(C)(C)NCC5)ncc23)c(C)c1 [Example 79, N6-(1,1-dimethyl-1,2,3,4-tetrahydroisoquinoline-7-yl)-N 3-(4-(2-methoxyethoxy)-2,6-dimethylphenyl)-1-methyl-1H-pyrazolo[3,4-d]pyrimidine-3,6-diamine] | 13 |
|  | Cc1cccc(C)c1Nc1nn(C)c2nc(Nc3ccc4c(c3)C(C)N(C)C(C)(C)C4)ncc12 (centres unmarked) [Example 67, N3-(2,6-dimethylphenyl)-1-methyl-N 6-(1,2,3,3-tetramethyl-1,2,3,4-tetrahydroisoquinoline-7-yl)-1H-pyrazolo[3,4-d]pyrimidine-3,6-diamine] | 23.6 |
|  | CC(=O)N1Cc2cc(Nc3ncc4c(Nc5c(C)cccc5C)nn(C)c4n3)ccc2C(C)(C)C1 [Example 68, 1-(7-((3-((2,6-dimethylphenyl)amino)-1-methyl-1H-pyrazolo[3,4-d]pyrimidine-6-yl)amino)-4,4-dimethyl-3,4-dihydroisoquinoline-2(1H)-yl)ethane-1-one] | 121 |
|  | Cc1ccc(NC(=O)Nc2cccc(C(F)(F)F)c2)cc1Nc1nn(C)c2nc(Nc3ccc4c(c3)CNCC4)ncc12 [Example 57, 1-(4-methyl-3-((1-methyl-6-((1,2,3,4-tetrahydroisoquinoline-7-yl)amino)-1H-pyrazolo[3,4-d]pyrimidine-3-yl)amino)phenyl)-3-(3-(trifluoromethyl)phenyl)urea] | 221 |
|  | Cc1cccc(C)c1Nc1nn(C(C)C)c2nc(Nc3ccc4c(c3)CNCC4)ncc12 [Example 27, N^3 (2,6-dimethylphenyl)-1-isopropyl-N6-(1,2,3,4-tetrahydroisoquinoline-7-yl)-1H-pyrazolo[3,4-d]pyrimidine-3,6-diamine] | 35.4 |
